The target in the assay is Programmed cell death 1 ligand/protein 1 (Homo sapiens, UniProt Q9NZQ7+Q15116). As to the kind of experiment: PD-1/PD-L1 Binding Assay (Alphascreen). As for the experimental part: The assays were conducted in a standard black 384-well polystyrene plate with a final volume of 20 μL. Inhibitors were first serially diluted in DMSO and then added to the plate wells before the addition of other reaction components. The final concentration of DMSO in the assay was […]. Add 100 nL/well of compound to the 384 reaction plate (6008280, PerkinElmer) with Echo and centrifuge at 1000 rpm for 1 minute. Add 5 μL/well 4×PD-L1 solutions to the 384 reaction plate, centrifuge at 1000 rpm for 1 minute, and add 5 μL/well 4×PD-1 solutions, centrifuge at 1000 rpm for 1 minute, and incubate at 25° C. for 15 minutes. The concentrations of the compounds were 300, 100, 33.33, 11.11, 3.70, 1.23, 0.41, 0.137, 0.046, 0.015, 0 nM, respectively. Add 10 μL/well 2× Anti-6×His AlphaLISA Acceptor beads and Streptavidin Donor beads solution (PerkinElmer-AL356F) to the above 384 reaction plate, centrifuge at 1000 rpm for 1 minute, and incubate at 25° C. in the dark for 120 minutes. Read the AlphaLISA signal value using the Envision Reader. IC50 determination was performed by fitting the curve of percent control activity versus the log of the inhibitor concentration using the GraphPad Prism 8.0 software.

SMILES strings stand for the structures.

Chain of Programmed cell death 1 ligand/protein 1 (Q9NZQ7 whole entry): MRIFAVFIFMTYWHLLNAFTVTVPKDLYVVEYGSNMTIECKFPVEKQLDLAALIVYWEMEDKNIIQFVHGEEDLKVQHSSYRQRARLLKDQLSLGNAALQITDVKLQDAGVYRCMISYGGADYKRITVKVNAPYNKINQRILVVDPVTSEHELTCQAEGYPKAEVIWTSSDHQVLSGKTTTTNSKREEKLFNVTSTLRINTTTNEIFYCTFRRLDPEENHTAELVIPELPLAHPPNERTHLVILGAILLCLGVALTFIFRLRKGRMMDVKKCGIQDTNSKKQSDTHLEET
Chain of Programmed cell death 1 ligand/protein 1 (Q15116 whole entry): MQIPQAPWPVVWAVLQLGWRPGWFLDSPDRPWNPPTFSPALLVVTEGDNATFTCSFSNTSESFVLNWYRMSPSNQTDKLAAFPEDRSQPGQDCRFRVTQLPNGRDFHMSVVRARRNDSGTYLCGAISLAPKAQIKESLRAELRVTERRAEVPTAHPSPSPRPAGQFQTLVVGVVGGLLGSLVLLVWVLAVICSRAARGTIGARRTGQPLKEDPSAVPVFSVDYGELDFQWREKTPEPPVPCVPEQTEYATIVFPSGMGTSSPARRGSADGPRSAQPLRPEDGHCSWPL

The compound `CCCNCCCN(C)CC1=CC2N=C(c3cccc(-c4cccc(-c5nc6cc(CN7CCC[C@H]7C(=O)O)c(OC(F)F)cc6o5)c4C)c3C)OC2C=C1OC(F)F` (some centres not stated) [US12187713, Example 53] showed an IC50 of 2.5 nM.

`Cc1c(C2=NC3C=C(CN4CCC4(C)N)C(OC(F)F)=CC3O2)cccc1-c1cccc(-c2nc3cc(CN4CCC[C@H]4C(=O)O)c(OC(F)F)cc3o2)c1C` (some centres not stated) [US12187713, Example 40] showed an IC50 of 2.5 nM.
